The source of these data is article PMC11861483, “Genetic characterization of the AHAS mutant line K4 with resistance to AHAS-inhibitor herbicides in rapeseed (Brassica napus L.)” (Stress Biology, 2025).

pKd: −log10 of the molar value.

The test deals with T1, BnAHAS3 (ZS9) (Brassica napus, UniProt P27819).
T1 construct: native, isolated and purified from total protein of ZS9 seedlings; AHAS on SDS-PAGE about 58-66 kD; immobilised on CM5 chip
T1 sequence (P27819 70-652): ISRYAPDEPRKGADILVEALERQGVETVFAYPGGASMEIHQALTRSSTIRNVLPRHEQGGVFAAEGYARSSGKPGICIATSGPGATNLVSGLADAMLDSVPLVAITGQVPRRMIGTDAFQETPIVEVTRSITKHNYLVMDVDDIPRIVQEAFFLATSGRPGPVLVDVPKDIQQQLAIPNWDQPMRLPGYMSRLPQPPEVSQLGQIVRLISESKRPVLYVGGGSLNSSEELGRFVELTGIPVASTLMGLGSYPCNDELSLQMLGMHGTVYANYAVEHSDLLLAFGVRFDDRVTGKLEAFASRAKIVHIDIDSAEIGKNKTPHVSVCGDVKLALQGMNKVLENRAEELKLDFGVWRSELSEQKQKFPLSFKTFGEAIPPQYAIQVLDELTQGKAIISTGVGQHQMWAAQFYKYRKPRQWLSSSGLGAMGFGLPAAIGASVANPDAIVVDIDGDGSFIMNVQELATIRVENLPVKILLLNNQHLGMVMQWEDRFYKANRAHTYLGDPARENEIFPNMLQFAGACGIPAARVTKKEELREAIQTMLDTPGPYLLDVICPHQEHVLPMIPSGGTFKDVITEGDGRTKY
Briefly: surface plasmon resonance (Biacore T200, CM5 chip), kinetic fit kd/ka. The test is classed as binding. The settings on record: read-out: Tribenuron-methyl / KD. An excerpt:
surface plasmon resonance (Biacore T200, CM5 chip), kinetic fit kd/ka on BnAHAS3 (ZS9)
A general note: Surface plasmon resonance follows binding to a sensor surface in real time, without labels.

Regarding `COC(=O)c1ccccc1S(=O)(=O)NC(=O)N(C)c1nc(C)nc(OC)n1` [tribenuron-methyl], the pKd is 4.48.
